From PMC3445516 (PLoS ONE, 2012) come the findings set out here.

Experiment in all cases: Ambit kinase profiling, competition binding
One assay concerns the target T1, EPHB3 (Homo sapiens, UniProt P54753).
T1 construct: purchased Ambit Biosciences (KINOMEscan)
T1 sequence (P54753 34-998): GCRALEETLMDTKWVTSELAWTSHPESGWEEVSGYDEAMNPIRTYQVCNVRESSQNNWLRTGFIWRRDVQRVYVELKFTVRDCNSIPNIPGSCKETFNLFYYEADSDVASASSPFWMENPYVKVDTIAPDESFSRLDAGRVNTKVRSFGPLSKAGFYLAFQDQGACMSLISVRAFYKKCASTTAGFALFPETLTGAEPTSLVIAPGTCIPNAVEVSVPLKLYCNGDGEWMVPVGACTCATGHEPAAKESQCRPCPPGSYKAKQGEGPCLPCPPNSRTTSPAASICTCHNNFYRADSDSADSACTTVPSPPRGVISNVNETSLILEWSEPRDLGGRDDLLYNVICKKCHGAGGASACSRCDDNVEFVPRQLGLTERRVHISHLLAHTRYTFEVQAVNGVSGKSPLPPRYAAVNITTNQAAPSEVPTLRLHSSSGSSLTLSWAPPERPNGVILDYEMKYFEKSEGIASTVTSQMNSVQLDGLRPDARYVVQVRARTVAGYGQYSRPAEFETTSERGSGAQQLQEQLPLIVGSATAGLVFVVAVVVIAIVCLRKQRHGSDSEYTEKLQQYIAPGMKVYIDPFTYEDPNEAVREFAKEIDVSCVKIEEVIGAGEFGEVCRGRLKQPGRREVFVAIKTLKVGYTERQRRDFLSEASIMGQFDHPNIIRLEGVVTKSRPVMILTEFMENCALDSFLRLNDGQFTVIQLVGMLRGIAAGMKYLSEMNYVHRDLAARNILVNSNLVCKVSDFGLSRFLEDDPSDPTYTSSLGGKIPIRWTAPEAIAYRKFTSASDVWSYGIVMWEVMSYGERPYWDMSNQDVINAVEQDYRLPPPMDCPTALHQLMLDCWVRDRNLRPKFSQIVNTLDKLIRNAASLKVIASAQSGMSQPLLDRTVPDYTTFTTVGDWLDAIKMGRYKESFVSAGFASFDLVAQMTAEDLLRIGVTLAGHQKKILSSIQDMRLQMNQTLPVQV
The method, then: (§1) Also included in the kinase profile are four isoforms of PKC (δ, ε, η, θ) and eight isoforms of CAMKs (CAMKIα, δ, γ; CAMKIIα, β, δ, γ; CAMK4).
(§2) The global kinase profiling experiment was performed by Ambit Biosciences.

The next assay concerns the target T2, GAK (Homo sapiens, UniProt O14976).
T2 construct: purchased Ambit Biosciences (KINOMEscan)
T2 sequence (O14976 1-1311): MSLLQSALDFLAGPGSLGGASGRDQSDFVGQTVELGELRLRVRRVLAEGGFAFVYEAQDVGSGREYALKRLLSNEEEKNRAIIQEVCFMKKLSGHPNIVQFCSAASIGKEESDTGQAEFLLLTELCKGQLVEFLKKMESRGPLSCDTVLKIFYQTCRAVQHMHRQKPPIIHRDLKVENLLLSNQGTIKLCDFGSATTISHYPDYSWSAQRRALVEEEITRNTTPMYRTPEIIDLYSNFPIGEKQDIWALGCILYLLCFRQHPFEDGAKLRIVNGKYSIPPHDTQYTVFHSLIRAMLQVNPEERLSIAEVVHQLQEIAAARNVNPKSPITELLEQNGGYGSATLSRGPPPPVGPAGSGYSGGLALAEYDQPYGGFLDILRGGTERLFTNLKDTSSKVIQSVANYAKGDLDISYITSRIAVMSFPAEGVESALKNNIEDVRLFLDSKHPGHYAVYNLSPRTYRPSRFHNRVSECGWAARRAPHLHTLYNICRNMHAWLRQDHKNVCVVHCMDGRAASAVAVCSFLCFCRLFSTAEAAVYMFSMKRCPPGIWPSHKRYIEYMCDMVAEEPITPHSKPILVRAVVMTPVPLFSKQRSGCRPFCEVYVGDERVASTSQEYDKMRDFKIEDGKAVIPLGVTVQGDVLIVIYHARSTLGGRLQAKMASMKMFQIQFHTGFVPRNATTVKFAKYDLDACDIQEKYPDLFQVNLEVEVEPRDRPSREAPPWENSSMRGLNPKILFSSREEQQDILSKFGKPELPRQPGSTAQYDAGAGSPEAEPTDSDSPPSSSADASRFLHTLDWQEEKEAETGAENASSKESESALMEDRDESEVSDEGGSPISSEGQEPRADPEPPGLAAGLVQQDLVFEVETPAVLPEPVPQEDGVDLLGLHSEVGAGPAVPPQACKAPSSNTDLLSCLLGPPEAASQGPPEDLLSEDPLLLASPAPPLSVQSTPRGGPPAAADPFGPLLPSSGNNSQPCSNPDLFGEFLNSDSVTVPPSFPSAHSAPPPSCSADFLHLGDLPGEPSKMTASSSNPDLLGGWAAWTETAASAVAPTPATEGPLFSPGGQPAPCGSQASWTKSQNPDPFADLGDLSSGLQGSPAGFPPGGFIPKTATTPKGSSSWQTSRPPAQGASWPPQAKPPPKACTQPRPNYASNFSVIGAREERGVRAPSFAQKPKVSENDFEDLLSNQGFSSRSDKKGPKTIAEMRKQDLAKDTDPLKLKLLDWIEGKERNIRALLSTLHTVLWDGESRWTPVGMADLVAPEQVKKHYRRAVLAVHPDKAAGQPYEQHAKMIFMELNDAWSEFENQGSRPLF
The method, then:
as §1, §2

In another assay the target is T3, DMPK2 (Homo sapiens, UniProt Q6DT37).
T3 construct: purchased Ambit Biosciences (KINOMEscan)
How it is done:
as §1, §2

The target in a further assay is T4, ACVR1 (Homo sapiens, UniProt Q04771).
T4 construct: purchased Ambit Biosciences (KINOMEscan)
T4 sequence (Q04771 21-509): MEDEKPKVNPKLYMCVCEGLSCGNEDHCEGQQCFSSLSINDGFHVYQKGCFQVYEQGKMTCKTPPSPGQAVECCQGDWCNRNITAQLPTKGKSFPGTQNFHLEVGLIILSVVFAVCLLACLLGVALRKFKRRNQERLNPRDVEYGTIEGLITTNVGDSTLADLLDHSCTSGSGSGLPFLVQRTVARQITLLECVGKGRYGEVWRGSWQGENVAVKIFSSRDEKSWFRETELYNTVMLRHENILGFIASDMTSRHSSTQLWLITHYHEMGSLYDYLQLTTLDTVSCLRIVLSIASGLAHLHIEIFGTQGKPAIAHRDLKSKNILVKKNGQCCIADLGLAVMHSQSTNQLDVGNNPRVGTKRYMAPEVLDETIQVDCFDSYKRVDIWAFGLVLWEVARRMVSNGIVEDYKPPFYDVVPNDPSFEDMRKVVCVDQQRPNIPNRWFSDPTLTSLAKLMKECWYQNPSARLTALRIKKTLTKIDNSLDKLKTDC
How it is done: as §1, §2

The next assay addresses T5, BRAF (Homo sapiens, UniProt P15056).
T5 construct: purchased Ambit Biosciences (KINOMEscan)
The method, then:
as §1, §2

Read-outs that look alike come from different tables or passages of the source.

T3 sequence (Q6DT37 whole entry): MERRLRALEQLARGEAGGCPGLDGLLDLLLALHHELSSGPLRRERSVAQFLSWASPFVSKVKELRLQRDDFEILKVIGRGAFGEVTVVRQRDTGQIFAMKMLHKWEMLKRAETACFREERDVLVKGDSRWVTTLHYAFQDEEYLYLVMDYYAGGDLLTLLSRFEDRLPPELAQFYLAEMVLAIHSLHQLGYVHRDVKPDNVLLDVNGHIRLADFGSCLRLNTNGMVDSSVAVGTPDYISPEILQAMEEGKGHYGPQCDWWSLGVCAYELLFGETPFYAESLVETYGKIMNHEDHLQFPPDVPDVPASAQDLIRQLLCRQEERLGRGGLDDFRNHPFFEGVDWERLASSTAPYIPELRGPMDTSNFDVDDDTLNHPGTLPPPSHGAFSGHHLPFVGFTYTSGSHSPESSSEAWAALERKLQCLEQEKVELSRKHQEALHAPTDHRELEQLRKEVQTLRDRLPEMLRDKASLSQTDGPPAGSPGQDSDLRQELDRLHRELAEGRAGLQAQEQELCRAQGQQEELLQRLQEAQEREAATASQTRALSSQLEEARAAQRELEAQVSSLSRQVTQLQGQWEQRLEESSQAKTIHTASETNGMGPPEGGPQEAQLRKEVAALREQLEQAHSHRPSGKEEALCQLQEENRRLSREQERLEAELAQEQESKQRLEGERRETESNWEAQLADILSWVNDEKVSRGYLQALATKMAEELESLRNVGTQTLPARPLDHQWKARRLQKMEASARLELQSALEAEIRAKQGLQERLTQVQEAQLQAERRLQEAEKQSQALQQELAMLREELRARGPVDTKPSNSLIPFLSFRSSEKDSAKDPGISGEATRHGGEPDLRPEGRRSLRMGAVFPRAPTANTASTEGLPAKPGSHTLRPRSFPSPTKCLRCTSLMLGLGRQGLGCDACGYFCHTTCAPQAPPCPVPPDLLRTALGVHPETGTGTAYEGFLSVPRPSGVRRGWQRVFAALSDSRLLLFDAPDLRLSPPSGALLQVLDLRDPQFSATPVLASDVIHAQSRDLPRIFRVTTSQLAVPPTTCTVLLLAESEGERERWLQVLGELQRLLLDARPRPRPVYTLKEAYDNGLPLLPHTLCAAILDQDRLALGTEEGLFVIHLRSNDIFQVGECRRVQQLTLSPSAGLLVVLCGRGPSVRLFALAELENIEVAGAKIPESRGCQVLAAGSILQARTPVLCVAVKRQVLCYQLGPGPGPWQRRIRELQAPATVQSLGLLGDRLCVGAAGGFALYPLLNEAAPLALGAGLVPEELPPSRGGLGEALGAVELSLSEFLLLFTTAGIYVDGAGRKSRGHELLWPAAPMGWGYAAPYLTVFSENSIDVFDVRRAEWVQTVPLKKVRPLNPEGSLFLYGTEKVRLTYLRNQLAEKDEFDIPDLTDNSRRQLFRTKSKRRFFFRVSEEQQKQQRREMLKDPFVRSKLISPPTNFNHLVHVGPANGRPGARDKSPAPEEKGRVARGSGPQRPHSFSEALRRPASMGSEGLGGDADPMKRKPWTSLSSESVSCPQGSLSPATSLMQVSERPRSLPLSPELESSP
T5 sequence (P15056 whole entry): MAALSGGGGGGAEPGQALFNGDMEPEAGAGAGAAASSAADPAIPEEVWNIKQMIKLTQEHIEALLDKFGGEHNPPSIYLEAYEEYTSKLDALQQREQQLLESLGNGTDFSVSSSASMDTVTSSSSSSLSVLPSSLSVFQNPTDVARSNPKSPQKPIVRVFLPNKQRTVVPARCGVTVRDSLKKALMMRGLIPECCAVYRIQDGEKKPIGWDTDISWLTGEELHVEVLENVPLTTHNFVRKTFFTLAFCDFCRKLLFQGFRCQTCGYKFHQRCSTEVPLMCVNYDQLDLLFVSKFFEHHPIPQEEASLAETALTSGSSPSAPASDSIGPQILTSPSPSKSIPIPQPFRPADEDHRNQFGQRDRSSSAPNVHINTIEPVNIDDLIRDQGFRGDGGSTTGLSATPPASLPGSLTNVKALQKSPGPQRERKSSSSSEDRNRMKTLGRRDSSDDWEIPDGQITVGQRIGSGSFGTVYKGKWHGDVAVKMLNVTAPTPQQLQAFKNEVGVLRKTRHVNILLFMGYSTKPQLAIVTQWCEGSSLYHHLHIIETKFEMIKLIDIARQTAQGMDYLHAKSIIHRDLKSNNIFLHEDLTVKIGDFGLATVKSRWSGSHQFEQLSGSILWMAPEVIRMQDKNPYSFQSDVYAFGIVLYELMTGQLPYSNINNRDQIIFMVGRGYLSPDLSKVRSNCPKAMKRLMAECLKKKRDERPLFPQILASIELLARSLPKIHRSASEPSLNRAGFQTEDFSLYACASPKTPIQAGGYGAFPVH

Regarding `CC(O)CNc1cc(-c2[nH]c3cccnc3c2-c2ccc(F)cc2)ccn1` (stereo not drawn) [Compound 140], the inhibition at 10 µM is under 50% on EPHB3 (read-out: % Competition); 98% at GAK (read-out: % Competition); 74% on DMPK2 (read-out: % Competition); under 50% on ACVR1 (read-out: % Competition); 76% at BRAF (read-out: % Competition).

In the case of `Fc1ccc(-c2c(-c3ccncc3)[nH]c3nccnc23)cc1` [RO1155697-000-005], the inhibition at 10 µM on EPHB3 (EPHB3, compound concentration 10 uM, read-out: Percent Competition) is 82%; on GAK (GAK, compound concentration 10 uM, read-out: Percent Competition) it was 98%; on DMPK2 (DMPK2, compound concentration 10 uM, read-out: Percent Competition), 100%; on ACVR1 (ACVR1, compound concentration 10 uM, read-out: Percent Competition), 92%; on BRAF (BRAF, compound concentration 10 uM, read-out: Percent Competition), 97%.

Consider `Fc1ccc(-c2c(-c3ccncc3)[nH]c3nccnc23)cc1` [Compound 122], for which the inhibition at 10 µM on EPHB3 (EPHB3, 10 µM, read-out: % Competition) turned out to be 82%; at GAK (GAK, 10 µM, read-out: % Competition), 98%; at DMPK2 (DMPK2, 10 µM, read-out: % Competition) it was 100%; at ACVR1 (ACVR1, 10 µM, read-out: % Competition), 92%; on BRAF (BRAF, 10 µM, read-out: % Competition) it was 97%.
